As a reminder, the MIC is the least concentration at which growth counts as inhibited. Lower therefore signals inhibition by little substance.

Common to all, as to assay type: functional
Experiment [1] concerns Pseudomonas aeruginosa. As to the kind of experiment: Minimal inhibitory concentration against Pseudomonas aeruginosa GN315 was determined by 2-fold agar dilution streak method at 37: C for 18 h. For orientation: Agar dilution tests growth on a series of plates holding different concentrations.
The subject of a further experiment is Staphylococcus aureus. The experiment can be described thus: Minimal inhibitory concentration against Staphylococcus aureus FDA209P was determined by 2-fold agar dilution streak method at 37: C for 18 h.
Experiment [2] relates to Escherichia coli. The experiment can be described thus: Minimal inhibitory concentration against Escherichia coli K-12 ML1410 was determined by 2-fold agar dilution streak method at 37: C for 18 h.
Experiment [3] deals with Mycolicibacterium smegmatis. The experiment can be described thus: Minimal inhibitory concentration against Mycobacterium smegmatis ATCC607 was determined by 2-fold agar dilution streak method at 37C for 42h.
The subject of experiment [4] is Pseudomonas aeruginosa. The experiment can be described thus: Minimal inhibitory concentration against Pseudomonas aeruginosa 21-75 was determined by 2-fold agar dilution streak method at 37: C for 18 h.
For a further experiment, the system named is Micrococcus luteus. As to the kind of experiment: Minimal inhibitory concentration against Micrococcus luteus FDA16 was determined by 2-fold agar dilution streak method at 37: C for 18 h.
For experiment [5], the system named is Pseudomonas aeruginosa. As to the kind of experiment: Minimal inhibitory concentration against Pseudomonas aeruginosa A3 was determined by 2-fold agar dilution streak method at 37: C for 18 h.
The next experiment concerns Serratia marcescens. As to the kind of experiment: Minimal inhibitory concentration against Serratia marcescens was determined by 2-fold agar dilution streak method at 37: C for 18 h.
Experiment [6] relates to Escherichia coli. As to the kind of experiment: Minimal inhibitory concentration against Escherichia coli JR66/W677 was determined by 2-fold agar dilution streak method at 37: C for 18 h.
The subject of the next experiment is Bacillus subtilis. The experiment can be described thus: Minimal inhibitory concentration against Bacillus subtilis PCI219 was determined by 2-fold agar dilution streak method at 37: C for 18 h.
The test system of the next experiment is Klebsiella pneumoniae. The experiment can be described thus: Minimal inhibitory concentration against Klebsiella pneumoniae PCI 602 was determined by 2-fold agar dilution streak method at 37: C for 18 h.
Experiment [7] deals with Escherichia coli. The experiment can be described thus: Minimal inhibitory concentration against Escherichia coli K-12 was determined by 2-fold agar dilution streak method at 37: C for 18 h. As to conditions: K-12, 18 h.
The subject of a further experiment is Bacillus cereus. As to the kind of experiment: Minimal inhibitory concentration against Bacillus cereus ATCC 10702 was determined by 2-fold agar dilution streak method at 37: C for 18 h. As to conditions: ATCC 10702, 18 h.

In brackets after ≈: the same amount, converted by molar mass.

In the case of `NCC1CCC(N)C(OC2C(N)CC(NC(=O)[C@H](O)CCN=C(N)N)C(OC3OC(CO)C(O)C(N)C3O)C2O)O1` (stereo not given in full), the MIC in the experiment with Pseudomonas aeruginosa [1] was greater than 100 µg/mL; against Staphylococcus aureus, 0.2 µg/mL (≈ 0.336 µM); against Escherichia coli [2], 1.56 µg/mL (≈ 2.62 µM); in experiment [3], 0.39 µg/mL (≈ 0.656 µM); against Pseudomonas aeruginosa [4] it was 12.5 µg/mL (≈ 21 µM); against Micrococcus luteus it was 12.5 µg/mL (≈ 21 µM). In addition, the MIC with Pseudomonas aeruginosa [5] amounted to 0.39 µg/mL (≈ 0.656 µM); against Serratia marcescens, 25 µg/mL (≈ 42 µM); in the experiment with Escherichia coli [6] it was 3.13 µg/mL (≈ 5.26 µM); against Bacillus subtilis it was 0.1 µg/mL (≈ 0.168 µM); against Klebsiella pneumoniae it was 1.56 µg/mL (≈ 2.62 µM); in the experiment with Escherichia coli [7] it was 0.78 µg/mL (≈ 1.31 µM). Moreover, the MIC with Bacillus cereus amounted to 0.78 µg/mL (≈ 1.31 µM).
On to `NCC1CCC(N)C(OC2C(N)CC(N=C(N)N)C(OC3OC(CO)C(O)C(N)C3O)C2O)O1` (stereo not given), for which the minimum inhibitory concentration (MIC) against Pseudomonas aeruginosa [1] was greater than 100 µg/mL; against Staphylococcus aureus, 0.78 µg/mL (≈ 1.58 µM); in the experiment on Escherichia coli [2], greater than 100 µg/mL; in [3], 3.13 µg/mL (≈ 6.34 µM); against Pseudomonas aeruginosa [4], greater than 100 µg/mL; in the experiment with Micrococcus luteus, greater than 100 µg/mL. In addition, the MIC against Pseudomonas aeruginosa [5] was 25 µg/mL (≈ 50.7 µM); with Serratia marcescens it was greater than 100 µg/mL; in the experiment with Escherichia coli [6], greater than 100 µg/mL; with Bacillus subtilis, 0.78 µg/mL (≈ 1.58 µM); in the experiment with Klebsiella pneumoniae, greater than 100 µg/mL; in the experiment on Escherichia coli [7], 50 µg/mL (≈ 101 µM). Besides, the minimum inhibitory concentration (MIC) in the experiment with Bacillus cereus was determined as 25 µg/mL (≈ 50.7 µM).
Turning to `NCC1CCC(N)C(OC2C(N)CC(NC(=O)[C@H](N)CCCN=C(N)N)C(OC3OC(CO)C(O)C(N)C3O)C2O)O1` (stereo not given in full), the minimum inhibitory concentration (MIC) is greater than 100 µg/mL against Pseudomonas aeruginosa [1]; 6.25 µg/mL (≈ 10.3 µM) against Staphylococcus aureus; greater than 100 µg/mL in the experiment with Escherichia coli [2]; 25 µg/mL (≈ 41.1 µM) in experiment [3]; greater than 100 µg/mL in the experiment with Pseudomonas aeruginosa [4]; greater than 100 µg/mL with Micrococcus luteus. Also, the MIC against Pseudomonas aeruginosa [5] is 100 µg/mL (≈ 165 µM); with Serratia marcescens it was greater than 100 µg/mL; in the experiment with Escherichia coli [6], greater than 100 µg/mL; against Bacillus subtilis it was 3.13 µg/mL (≈ 5.15 µM); against Klebsiella pneumoniae, 100 µg/mL (≈ 165 µM); against Escherichia coli [7] it was 100 µg/mL (≈ 165 µM). This compound registered an MIC in the experiment on Bacillus cereus of 25 µg/mL (≈ 41.1 µM).
For the compound `NCCCC(=O)NC1CC(N)C(OC2OC(CN)CCC2N)C(O)C1OC1OC(CO)C(O)C(N)C1O` (stereo not given), the minimum inhibitory concentration (MIC) against Pseudomonas aeruginosa [1] is greater than 100 µg/mL; in the experiment with Staphylococcus aureus, 1.56 µg/mL (≈ 2.91 µM); in the experiment on Escherichia coli [2], 25 µg/mL (≈ 46.6 µM); in experiment [3], 6.25 µg/mL (≈ 11.6 µM); against Pseudomonas aeruginosa [4] it was greater than 100 µg/mL; with Micrococcus luteus it was 100 µg/mL (≈ 186 µM). The MIC in the experiment with Pseudomonas aeruginosa [5] was 3.13 µg/mL (≈ 5.83 µM); in the experiment on Serratia marcescens, greater than 100 µg/mL; in the experiment on Escherichia coli [6], 25 µg/mL (≈ 46.6 µM); against Bacillus subtilis, 0.78 µg/mL (≈ 1.45 µM); against Klebsiella pneumoniae, 12.5 µg/mL (≈ 23.3 µM); with Escherichia coli [7], 12.5 µg/mL (≈ 23.3 µM). For the same compound, the minimal inhibitory concentration (MIC) against Bacillus cereus amounted to 6.25 µg/mL (≈ 11.6 µM).
Consider `NCC1CCC(N)C(OC2C(N)CC(NC(=O)CCCN=C(N)N)C(OC3OC(CO)C(O)C(N)C3O)C2O)O1` (stereo not given), for which the minimal inhibitory concentration (MIC) is greater than 100 µg/mL with Pseudomonas aeruginosa [1]; 1.56 µg/mL (≈ 2.7 µM) against Staphylococcus aureus; 25 µg/mL (≈ 43.2 µM) against Escherichia coli [2]; 6.25 µg/mL (≈ 10.8 µM) in [3]; greater than 100 µg/mL in the experiment on Pseudomonas aeruginosa [4]; 100 µg/mL (≈ 173 µM) against Micrococcus luteus. Moreover, the MIC in the experiment with Pseudomonas aeruginosa [5] is 6.25 µg/mL (≈ 10.8 µM); in the experiment with Serratia marcescens, greater than 100 µg/mL; with Escherichia coli [6], 50 µg/mL (≈ 86.4 µM); with Bacillus subtilis, 1.56 µg/mL (≈ 2.7 µM); against Klebsiella pneumoniae, 12.5 µg/mL (≈ 21.6 µM); in the experiment on Escherichia coli [7], 12.5 µg/mL (≈ 21.6 µM). Moreover, in the experiment with Bacillus cereus, 6.25 µg/mL (≈ 10.8 µM) was the least that counted as inhibitory (MIC).
